Laboratory results from patent US20160002204A1 (Board of Regents, The University of Texas System, priority 2014, published 2016).

Tests used:
[1] = molecular target: T1, GLS1 (purified recombinant human GAC) (Homo sapiens, UniProt O94925); assay: GLS1 enzymatic activity assay (dual-coupled, Amplex UltraRed/resorufin); type: biochemical
T1 sequence (O94925 55-598 isoform O94925-3 limits assumed): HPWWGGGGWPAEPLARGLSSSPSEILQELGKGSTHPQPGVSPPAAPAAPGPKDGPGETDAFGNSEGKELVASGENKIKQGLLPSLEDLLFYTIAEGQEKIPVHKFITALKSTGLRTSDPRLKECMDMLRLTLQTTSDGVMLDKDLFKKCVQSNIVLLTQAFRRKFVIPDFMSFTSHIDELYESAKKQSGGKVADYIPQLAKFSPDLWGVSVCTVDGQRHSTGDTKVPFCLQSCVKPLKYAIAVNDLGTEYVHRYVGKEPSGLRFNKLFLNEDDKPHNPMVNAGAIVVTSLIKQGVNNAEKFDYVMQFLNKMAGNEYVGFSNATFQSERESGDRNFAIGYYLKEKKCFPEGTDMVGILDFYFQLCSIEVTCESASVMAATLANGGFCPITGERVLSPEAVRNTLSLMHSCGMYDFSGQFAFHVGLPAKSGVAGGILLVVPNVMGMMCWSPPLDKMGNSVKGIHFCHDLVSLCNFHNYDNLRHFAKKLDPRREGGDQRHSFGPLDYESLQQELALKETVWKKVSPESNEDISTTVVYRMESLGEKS
Procedure, shortened: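 Recombinant human GAC (2 nM) preincubated with 50 mM potassium phosphate, then inhibitor (10 min each, RT); 1 mM glutamine, pH 7.4 Hepes buffer, 1% DMSO. Glutamate coupled via glutamate oxidase/HRP to resorufin (Ex 530/Em 590), kinetic or 20-min endpoint; IC50 by four-parameter logistic fit.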

A549 cells = assay: A549 proliferation (viability) assay, Cell Titer Fluor, 72 hours; type: cell-based; details: Homo sapiens
Procedure, shortened: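 Seed A549 at 1000 cells/well and culture 24 h. Add compound (final DMSO 0.5%) and incubate 72 h at 37 °C. Add Cell Titer Fluor, mix 15 min, incubate 30 min, read fluorescence and fit EC50 by four-parameter logistic.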

Row | IC50 [1] | EC50 (A549 cells) | SMILES
1 | < 100 nM | < 100 nM | O=C(Nc1ccn(CCC(F)Cn2cc(C(=O)NCc3cccc(OC(F)(F)F)c3)nn2)c(=O)c1F)C(=O)N1CCCCC1 (stereo not drawn) [Example 358, 1-(2-fluoro-4-(3-fluoro-2-oxo-4-(2-oxo-2-(piperidin-1-yl)acetamido)pyridin-1(2H)-yl)butyl)-N-(3-(trifluoromethoxy)benzyl)-1H-1,2,3-triazole-4-carboxamide]
2 | 100 to 500 nM | 500 to 5000 nM | O=C(O)C(=O)Nc1ccn(CCC(F)Cn2cc(C(=O)NCc3cccc(OC(F)(F)F)c3)nn2)c(=O)c1F (stereo not drawn) [Example 359, [(3-fluoro-1-{3-fluoro-4-[4-({[3-(trifluoromethoxy)phenyl]methyl}carbamoyl)-1H-1,2,3-triazol-1-yl]butyl}-2-oxo-1,2-dihydropyridin-4-yl)carbamoyl]formic acid]
3 | < 100 nM | < 100 nM | O=C(CC1CCCC1)Nc1ccn(CCC(F)Cn2cc(C(=O)NCc3cncc(C(F)(F)F)c3)nn2)c(=O)c1F (stereo not drawn) [Example 360, 1-{4-[4-(2-cyclopentylacetamido)-3-fluoro-2-oxo-1,2-dihydropyridin-1-yl]-2-fluorobutyl}-N-{[5-(trifluoromethyl)pyridin-3-yl]methyl}-1H-1,2,3-triazole-4-carboxamide]
4 | < 100 nM | < 100 nM | O=C(Cc1ccccc1F)Nc1ccn(CCC(F)Cn2cc(C(=O)NCc3cncc(C(F)(F)F)c3)nn2)c(=O)c1F (stereo not drawn) [Example 361, 1-(2-fluoro-4-{3-fluoro-4-[2-(2-fluorophenyl)acetamido]-2-oxo-1,2-dihydropyridin-1-yl}butyl)-N-{[5-(trifluoromethyl)pyridin-3-yl]methyl}-1H-1,2,3-triazole-4-carboxamide]
5 | < 100 nM | < 100 nM | O=C(NCc1cncc(C(F)(F)F)c1)c1cn(CC(F)CCn2ccc(NC(=O)C(F)c3ccccc3)c(F)c2=O)nn1 (stereo not drawn) [Example 362, 1-{2-fluoro-4-[3-fluoro-4-(2-fluoro-2-phenylacetamido)-2-oxo-1,2-dihydropyridin-1-yl]butyl}-N-{[5-(trifluoromethyl)pyridin-3-yl]methyl}-1H-1,2,3-triazole-4-carboxamide]
6 | < 100 nM | < 100 nM | CCOC(=O)N1CCC(CC(=O)Nc2ccn(CCC(F)Cn3cc(C(=O)NCc4cncc(C(F)(F)F)c4)nn3)c(=O)c2F)CC1 (stereo not drawn) [Example 363, ethyl 4-{[(3-fluoro-1-{3-fluoro-4-[4-({[5-(trifluoromethyl)pyridin-3-yl]methyl}carbamoyl)-1H-1,2,3-triazol-1-yl]butyl}-2-oxo-1,2-dihydropyridin-4-yl)carbamoyl]methyl}piperidine-1-carboxylate]
7 | < 100 nM | < 100 nM | O=C(NCc1cncc(C(F)(F)F)c1)c1cn(CC(F)CCn2ccc(NC(=O)C3CCCC3)c(F)c2=O)nn1 (stereo not drawn) [Example 364, 1-[4-(4-cyclopentaneamido-3-fluoro-2-oxo-1,2-dihydropyridin-1-yl)-2-fluorobutyl]-N-{[5-(trifluoromethyl)pyridin-3-yl]methyl}-1H-1,2,3-triazole-4-carboxamide]
8 | > 5000 nM | > 5000 nM | Nc1ccn(CCC(F)Cn2cc(C(=O)NCc3ccc(C(F)(F)F)nc3)nn2)c(=O)c1F (stereo not drawn) [Example 366, 1-[4-(4-amino-3-fluoro-2-oxo-1,2-dihydropyridin-1-yl)-2-fluorobutyl]-N-{[6-(trifluoromethyl)pyridin-3-yl]methyl}-1H-1,2,3-triazole-4-carboxamide]

Second part, the molecule before the results:

Row | SMILES | IC50 [1] | EC50 (A549 cells)
9 | O=C(Cc1ccccc1)Nc1ccn(CCC(F)Cn2cc(C(=O)NCc3cncc(C(F)(F)F)c3)nn2)c(=O)c1F (stereo not drawn) [Example 348, 1-{2-fluoro-4-[3-fluoro-2-oxo-4-(2-phenylacetamido)-1,2-dihydropyridin-1-yl]butyl}-N-{[5-(trifluoromethyl)pyridin-3-yl]methyl}-1H-1,2,3-triazole-4-carboxamide] | < 100 nM | < 100 nM
10 | C[C@H](C(=O)Nc1ccn(CCC(F)Cn2cc(C(=O)NCc3cncc(C(F)(F)F)c3)nn2)c(=O)c1F)c1ccccc1 (stereo partly drawn) [Example 349] | < 100 nM | < 100 nM
11 | O=C(CC1CCC1)Nc1ccn(CCC(F)Cn2cc(C(=O)NCc3cncc(C(F)(F)F)c3)nn2)c(=O)c1F (stereo not drawn) [Example 350, 1-{4-[4-(2-cyclobutylacetamido)-3-fluoro-2-oxo-1,2-dihydropyridin-1-yl]-2-fluorobutyl}-N-{[5-(trifluoromethyl)pyridin-3-yl]methyl}-1H-1,2,3-triazole-4-carboxamide] | < 100 nM | < 100 nM
12 | O=C(CN1CCCCC1)Nc1ccn(CCC(F)Cn2cc(C(=O)NCc3cncc(C(F)(F)F)c3)nn2)c(=O)c1F (stereo not drawn) [Example 351, 1-(2-fluoro-4-{3-fluoro-2-oxo-4-[2-(piperidin-1-yl)acetamido]-1,2-dihydropyridin-1-yl}butyl)-N-{[5-(trifluoromethyl)pyridin-3-yl]methyl}-1H-1,2,3-triazole-4-carboxamide] | < 100 nM | < 100 nM
13 | CC(C(=O)Nc1ccn(CCC(F)Cn2cc(C(=O)NCc3cncc(C(F)(F)F)c3)nn2)c(=O)c1F)N1CCCCC1 (stereo not drawn) [Example 352, 1-(2-fluoro-4-{3-fluoro-2-oxo-4-[2-(piperidin-1-yl)propanamido]-1,2-dihydropyridin-1-yl}butyl)-N-{[5-(trifluoromethyl)pyridin-3-yl]methyl}-1H-1,2,3-triazole-4-carboxamide] | < 100 nM | < 100 nM
14 | O=C(Nc1ccn(CCC(F)Cn2cc(C(=O)NCc3cccc(OC(F)(F)F)c3)nn2)c(=O)c1F)c1ccccc1 (stereo not drawn) [Example 353, 1-[4-(4-benzamido-3-fluoro-2-oxo-1,2-dihydropyridin-1-yl)-2-fluorobutyl]-N-{[3-(trifluoromethoxy)phenyl]methyl}-1H-1,2,3-triazole-4-carboxamide] | < 100 nM | 100 to 500 nM
15 | CC(C)OC(=O)Nc1ccn(CCC(F)Cn2cc(C(=O)NCc3cccc(OC(F)(F)F)c3)nn2)c(=O)c1F (stereo not drawn) [Example 354] | < 100 nM | < 100 nM
16 | O=C(CC1CCCC1)Nc1ccn(CCC(F)Cn2cc(C(=O)NCc3cccc(OC(F)(F)F)c3)nn2)c(=O)c1F (stereo not drawn) [Example 355, 1-{4-[4-(2-cyclopentylacetamido)-3-fluoro-2-oxo-1,2-dihydropyridin-1-yl]-2-fluorobutyl}-N-{[3-(trifluoromethoxy)phenyl]methyl}-1H-1,2,3-triazole-4-carboxamide] | < 100 nM | < 100 nM
17 | O=C(CC1CCC1)Nc1ccn(CCC(F)Cn2cc(C(=O)NCc3ncccc3F)nn2)c(=O)c1F (stereo not drawn) [Example 356, 1-{4-[4-(2-cyclobutylacetamido)-3-fluoro-2-oxo-1,2-dihydropyridin-1-yl]-2-fluorobutyl}-N-[(3-fluoropyridin-2-yl)methyl]-1H-1,2,3-triazole-4-carboxamide] | 100 to 500 nM | 100 to 500 nM
18 | O=C(CC1CCC1)Nc1ccn(CCC(F)Cn2cc(C(=O)NCc3ccc(C(F)(F)F)nc3)nn2)c(=O)c1F (stereo not drawn) [Example 357, 1-{4-[4-(2-cyclobutylacetamido)-3-fluoro-2-oxo-1,2-dihydropyridin-1-yl]-2-fluorobutyl}-N-{[6-(trifluoromethyl)pyridin-3-yl]methyl}-1H-1,2,3-triazole-4-carboxamide] | < 100 nM | 100 to 500 nM
